In patent US12077503B2, “Substituted cyclic amides and their use as herbicides” (FMC CORPORATION, priority 2015, dated 2024):
Like-named read-outs stand apart in the source and are kept apart here.

What was measured:
Format in all cases: in vivo
[1] = test system: Kochia (Kochia scoparia); assay: Test A preemergence; conditions: Bassia scoparia, pre-emergence, 240 h; for pest or weed control at 125 g/ha: 125 g ai/ha; for pest or weed control at 500 g/ha: 500 g ai/ha
Procedure, shortened: (§1)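 Treatment is preemergence as a directed soil spray after planting, or postemergence at the one- to two-leaf stage, with test chemical in a non-phytotoxic solvent mixture plus surfactant. Plants stay in the greenhouse about 10 d before visual injury scoring on a 0 to 100 scale versus untreated controls.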

[2] = test system: barnyardgrass (Echinochloa crus-galli); assay: Test A preemergence; conditions: Echinochloa crus-galli, pre-emergence, 240 h; for pest or weed control at 125 g/ha: 125 g ai/ha; for pest or weed control at 500 g/ha: 500 g ai/ha
Procedure, shortened: as §1

[3] = test system: giant foxtail (Setaria faberii); assay: Test A preemergence; conditions: Setaria faberi, pre-emergence, 240 h; for pest or weed control at 125 g/ha: 125 g ai/ha; for pest or weed control at 500 g/ha: 500 g ai/ha
Procedure, shortened: as §1

[4] = test system: pigweed (Amaranthus retroflexus); assay: Test A preemergence; conditions: Amaranthus retroflexus, pre-emergence, 240 h; for pest or weed control at 125 g/ha: 125 g ai/ha; for pest or weed control at 500 g/ha: 500 g ai/ha
[5] = test system: ragweed (common ragweed, Ambrosia elatior); assay: Test A preemergence; conditions: Ambrosia artemisiifolia, pre-emergence, 240 h; for pest or weed control at 125 g/ha: 125 g ai/ha; for pest or weed control at 500 g/ha: 500 g ai/ha
Procedure, shortened: as §1

[6] = test system: ryegrass, Italian (Italian ryegrass, Lolium multiflorum); assay: Test A preemergence; conditions: Lolium multiflorum, pre-emergence, 240 h; for pest or weed control at 125 g/ha: 125 g ai/ha; for pest or weed control at 500 g/ha: 500 g ai/ha
Procedure, shortened: as §1

[7] = test system: giant foxtail (Setaria faberii); assay: Test A postemergence; conditions: Setaria faberi, post-emergence, 240 h, 125 g ai/ha, Postemergence; visual injury after approximately 10 d; 0 to 100 scale where 0 is no effect and 100 is complete control; read-out: Plant response rating, Foxtail, Giant
Procedure, shortened: as §1

[8] = test system: ragweed (common ragweed, Ambrosia elatior); assay: Test A postemergence; conditions: Ambrosia artemisiifolia, post-emergence, 240 h, 125 g ai/ha, Postemergence; visual injury after approximately 10 d; 0 to 100 scale where 0 is no effect and 100 is complete control; read-out: Plant response rating, Ragweed
Procedure, shortened: as §1

[9] = test system: ryegrass, Italian (Italian ryegrass, Lolium multiflorum); assay: Test A postemergence; conditions: Lolium multiflorum, post-emergence, 240 h, 125 g ai/ha, Postemergence; visual injury after approximately 10 d; 0 to 100 scale where 0 is no effect and 100 is complete control; read-out: Plant response rating, Ryegrass, Italian
Procedure, shortened: as §1

[10] = test system: wheat (Triticum aestivum); assay: Test A postemergence; conditions: Triticum aestivum, post-emergence, 240 h, 125 g ai/ha, Postemergence; visual injury after approximately 10 d; 0 to 100 scale where 0 is no effect and 100 is complete control; read-out: Plant response rating, Wheat
Procedure, shortened: as §1

[11] = test system: barnyardgrass (Echinochloa crus-galli); assay: Test B flooded paddy test; conditions: Echinochloa crus-galli, Flood, 250 g ai/ha; scale of 0 to 100 where 0 is no effect and 100 is complete control; read-out: Barnyardgrass plant response rating
Procedure, shortened: (§2)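 Visual ratings (0 none to 100 complete control) are relative to untreated plants, taken 13–15 d after treatment in a greenhouse. Test material went straight into floodwater standing 3 cm above the soil, kept constant, on plants at the 2-leaf stage.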

[12] = test system: ducksalad (Heteranthera limosa); assay: Test B flooded paddy test; conditions: Heteranthera limosa, Flood, 250 g ai/ha; scale of 0 to 100 where 0 is no effect and 100 is complete control; read-out: Ducksalad plant response rating
Procedure, shortened: as §2

[13] = test system: rice (Oryra sativa); assay: Test B flooded paddy test; conditions: Oryza sativa, Flood, 250 g ai/ha; scale of 0 to 100 where 0 is no effect and 100 is complete control; read-out: Rice plant response rating
Procedure, shortened: as §2

[14] = test system: sedge, umbrella (small-flower umbrella sedge, Cyperus difformis); assay: Test B flooded paddy test; conditions: Cyperus difformis, Flood, 250 g ai/ha; scale of 0 to 100 where 0 is no effect and 100 is complete control; read-out: Sedge, Umbrella plant response rating
Procedure, shortened: as §2

CN1CC[C@H](c2cccc(Cl)c2)[C@@H](C(=O)Nc2cccc(Cl)c2F)C1=O [Compound 924]
50%: pest or weed control at 250 g/ha [11]
70%: pest or weed control at 500 g/ha ([6]; Preemergence, visual injury vs untreated controls after approximately 10 d, read-out: Ryegrass, Italian plant response rating (0 to 100 scale where 0 is no effect and 100 is complete control)) | pest or weed control at 250 g/ha [12]
0%: pest or weed control at 125 g/ha ([1]; preemergence, 0 to 100 scale where 0 is no effect and 100 is complete control, read-out: Kochia plant response rating) | pest or weed control at 500 g/ha ([1]; Preemergence, visual injury vs untreated controls after approximately 10 d, read-out: Kochia plant response rating (0 to 100 scale where 0 is no effect and 100 is complete control)) | pest or weed control at 125 g/ha ([4]; preemergence, 0 to 100 scale where 0 is no effect and 100 is complete control, read-out: Pigweed plant response rating) | pest or weed control at 500 g/ha ([4]; Preemergence, visual injury vs untreated controls after approximately 10 d, read-out: Pigweed plant response rating (0 to 100 scale where 0 is no effect and 100 is complete control)) | pest or weed control at 125 g/ha ([5]; preemergence, 0 to 100 scale where 0 is no effect and 100 is complete control, read-out: Ragweed plant response rating) | pest or weed control at 500 g/ha ([5]; Preemergence, visual injury vs untreated controls after approximately 10 d, read-out: Ragweed plant response rating (0 to 100 scale where 0 is no effect and 100 is complete control)) | pest or weed control at 125 g/ha [8] | pest or weed control at 125 g/ha [9] | plant injury at 125 g/ha [10] | pest or weed control at 250 g/ha [13] | pest or weed control at 250 g/ha [14]
20%: pest or weed control at 125 g/ha ([6]; preemergence, 0 to 100 scale where 0 is no effect and 100 is complete control, read-out: Ryegrass, Italian plant response rating)
90%: pest or weed control at 125 g/ha ([2]; preemergence, 0 to 100 scale where 0 is no effect and 100 is complete control, read-out: Barnyardgrass plant response rating) | pest or weed control at 500 g/ha ([2]; Preemergence, visual injury vs untreated controls after approximately 10 d, read-out: Barnyardgrass plant response rating (0 to 100 scale where 0 is no effect and 100 is complete control)) | pest or weed control at 125 g/ha ([3]; preemergence, 0 to 100 scale where 0 is no effect and 100 is complete control, read-out: Foxtail, Giant plant response rating) | pest or weed control at 500 g/ha ([3]; Preemergence, visual injury vs untreated controls after approximately 10 d, read-out: Foxtail, Giant plant response rating (0 to 100 scale where 0 is no effect and 100 is complete control)) | pest or weed control at 125 g/ha [7]

Cc1cc([C@H]2CN(C)C(=O)[C@@H]2C(=O)Nc2ccccc2S(C)(=O)=O)ccc1Cl [Compound 944]
70%: pest or weed control at 500 g/ha ([1]; preemergence, visual injury rating about 10 d after treatment, 0 to 100 scale (0 no effect, 100 complete control), read-out: Kochia plant response rating)
40%: pest or weed control at 125 g/ha [8] | plant injury at 125 g/ha [10] | pest or weed control at 250 g/ha [11]
30%: pest or weed control at 125 g/ha [9]
50%: pest or weed control at 125 g/ha ([5]; Preemergence, visual injury rating after approximately 10 d, read-out: Ragweed plant response rating (0 to 100 scale, 0 is no effect, 100 is complete control)) | pest or weed control at 500 g/ha ([5]; preemergence, visual injury rating about 10 d after treatment, 0 to 100 scale (0 no effect, 100 complete control), read-out: Ragweed plant response rating)
20%: pest or weed control at 500 g/ha ([4]; preemergence, visual injury rating about 10 d after treatment, 0 to 100 scale (0 no effect, 100 complete control), read-out: Pigweed plant response rating)
75%: pest or weed control at 250 g/ha [12]
0%: pest or weed control at 125 g/ha ([1]; Preemergence, visual injury rating after approximately 10 d, read-out: Kochia plant response rating (0 to 100 scale, 0 is no effect, 100 is complete control)) | pest or weed control at 125 g/ha ([4]; Preemergence, visual injury rating after approximately 10 d, read-out: Pigweed plant response rating (0 to 100 scale, 0 is no effect, 100 is complete control)) | pest or weed control at 125 g/ha ([6]; Preemergence, visual injury rating after approximately 10 d, read-out: Ryegrass, Italian plant response rating (0 to 100 scale, 0 is no effect, 100 is complete control)) | pest or weed control at 500 g/ha ([6]; preemergence, visual injury rating about 10 d after treatment, 0 to 100 scale (0 no effect, 100 complete control), read-out: Ryegrass, Italian plant response rating) | pest or weed control at 250 g/ha [13] | pest or weed control at 250 g/ha [14]
90%: pest or weed control at 125 g/ha ([2]; Preemergence, visual injury rating after approximately 10 d, read-out: Barnyardgrass plant response rating (0 to 100 scale, 0 is no effect, 100 is complete control)) | pest or weed control at 500 g/ha ([2]; preemergence, visual injury rating about 10 d after treatment, 0 to 100 scale (0 no effect, 100 complete control), read-out: Barnyardgrass plant response rating) | pest or weed control at 125 g/ha ([3]; Preemergence, visual injury rating after approximately 10 d, read-out: Foxtail, Giant plant response rating (0 to 100 scale, 0 is no effect, 100 is complete control)) | pest or weed control at 500 g/ha ([3]; preemergence, visual injury rating about 10 d after treatment, 0 to 100 scale (0 no effect, 100 complete control), read-out: Foxtail, Giant plant response rating) | pest or weed control at 125 g/ha [7]
